Assay results from ChEMBL document CHEMBL6109117, “Synthesis of an RBM39 Degrader That Downregulates CEP192 and Induces Disorganized Spindle Structures” (J Med Chem, 2025).
pIC50: −log10 of the molar value. The source made the active and inactive calls. The rule behind the calls is not given here.

How the values were obtained:
[1] = Effect on RNA splicing in human HCT-116 cells assessed as number of retention of introns at 2 uM incubated for 12 hrs by RNA-seq analysis; assay type: functional
[2] = system: K562; experiment: Induction of spliceosome function impairment in human K562 cells assessed as decrease in CUL4A transcript at 1 to 10 uM incubated for 12 hrs by qRT-PCR analysis; assay type: functional, cell-based; conditions: dose 1-10 µM
[3] = Effect on mitosis in human HCT-116 cells assessed as defective mitotic cells at 1 uM incubated for 48 hrs by immunofluorescence based analysis relative to control; assay type: functional
[4] = system: HCT-116; experiment: Induction of apoptosis in human HCT-116 cells at 0.1 to 5 uM incubated for 48 hrs by Annexin V-FITC/PI staining based flow cytometry; assay type: functional, cell-based; conditions: dose 0.1-5 µM
[5] = Effect on RNA splicing in human HCT-116 cells assessed as number of alternative 5' splice sites at 2 uM incubated for 12 hrs by RNA-seq analysis; assay type: functional
[6] = Effect on RNA splicing in human HCT-116 cells assessed as number of skipping exons at 2 uM incubated for 12 hrs by RNA-seq analysis; assay type: functional
[7] = system: HCT-116; experiment: Effect on RNA splicing in human HCT-116 cells assessed as number of alternative 3' splice sites at 2 uM incubated for 12 hrs by RNA-seq analysis; assay type: functional
[8] = system: MV4-11; experiment: Induction of spliceosome function impairment in human MV4-11 cells assessed as increase in PRPF38A RI transcript incubated for 12 hrs by qRT-PCR analysis; assay type: functional, cell-based; conditions: dose 1-10 µM
[9] = system: K562; experiment: Effect on RNA splicing in human K562 cells assessed as ESPL1 gene skipping exon at 2 uM incubated for 12 hrs by RNA-seq analysis; assay type: functional, cell-based
[10] = system: HCT-116; experiment: Induction of apoptosis in human HCT-116 cells assessed as change in caspase-3 level at 0.1 to 5 uM incubated for 48 hrs by Western blot analysis; assay type: functional, cell-based; conditions: dose 0.1-5 µM
[11] = system: HCT-116; experiment: Induction of spliceosome function impairment in human HCT-116 cells assessed as increase in CUL4A RI transcript at 1 to 10 uM incubated for 12 hrs by qRT-PCR analysis; assay type: functional, cell-based; conditions: dose 1-10 µM
[12] = system: HCT-116; experiment: Downregulation of RTTN expression in human HCT-116 cells incubated for 24 hrs by Western blot analysis; assay type: functional, cell-based
[13] = system: MV4-11; experiment: Induction of spliceosome function impairment in human MV4-11 cells assessed as decrease in CUL4A transcript at 1 to 10 uM incubated for 12 hrs by qRT-PCR analysis; assay type: functional, cell-based; conditions: dose 1-10 µM
[14] = system: K562; experiment: Effect on RNA splicing in human K562 cells assessed as CEP192 gene retention of introns up to 10 uM by PCR analysis; assay type: functional, cell-based; conditions: time 1-24 hrs
[15] = system: K562; experiment: Induction of spliceosome function impairment in human K562 cells assessed as increase in NCKAP1L RI transcript incubated for 12 hrs by qRT-PCR analysis; assay type: functional, cell-based; conditions: dose 1-10 µM
[16] = system: HCT-116; experiment: Antiproliferative activity against human HCT-116 cells incubated for 4 days by CCK8 assay; assay type: functional, cell-based; conditions: HCT-116, 96 h
[17] = system: HCT-116; experiment: Induction of spliceosome function impairment in human HCT-116 cells assessed as decrease in ZNF207 exon8-exon10 RNA level at 1 to 10 uM incubated for 12 hrs by qRT-PCR analysis; assay type: functional, cell-based; conditions: dose 1-10 µM
[18] = system: K562; experiment: Effect on RNA splicing in human K562 cells assessed as CEP192 gene skipping exon at 2 uM incubated for 12 hrs by RNA-seq analysis; assay type: functional, cell-based
[19] = system: MV4-11; experiment: Induction of spliceosome function impairment in human MV4-11 cells assessed as decrease in NCKAP1L transcript at 1 to 10 uM incubated for 12 hrs by qRT-PCR analysis; assay type: functional, cell-based; conditions: dose 1-10 µM
[20] = system: K562; experiment: Effect on RNA splicing in human K562 cells assessed as ESPL1 gene alternative 5' splicing site at 2 uM incubated for 12 hrs by RNA-seq analysis; assay type: functional, cell-based
[21] = system: HCT-116; experiment: Induction of cell cycle arrest in human HCT-116 cells assessed as accumulation at G2/M phase at 1 uM by PI staining based flow cytometry; assay type: functional
[22] = system: HCT-116; experiment: Induction of spliceosome function impairment in human HCT-116 cells assessed as decrease in ZNF207 exon8-exon9 RNA level at 1 to 10 uM incubated for 12 hrs by qRT-PCR analysis; assay type: functional, cell-based; conditions: dose 1-10 µM
[23] = system: HCT-116; experiment: Induction of spliceosome function impairment in human HCT-116 cells assessed as increase in PRPF38A RI transcript at 1 to 10 uM incubated for 12 hrs by qRT-PCR analysis; assay type: functional, cell-based; conditions: dose 1-10 µM
[24] = system: MOLM-13; experiment: Effect on RNA splicing in human MOLM-13 cells assessed as CEP192 gene skipping exons incubated for 12 hrs by PCR analysis; assay type: functional, cell-based; conditions: dose 0.1-10 µM
[25] = system: MOLM-13; experiment: Antiproliferative activity against human MOLM-13 cells assessed as inhibition of cell growth incubated for 4 days by CCK8 assay; assay type: functional, cell-based; conditions: time 4.0 day
[26] = system: MV4-11; experiment: Effect on RNA splicing in human MV4-11 cells assessed as CEP192 gene skipping exons incubated for 12 hrs by PCR analysis; assay type: functional, cell-based; conditions: dose 0.1-10 µM
[27] = system: CEM/C1; experiment: Effect on RNA splicing in human CEM/C1 cells assessed as CEP192 gene retention of introns incubated for 12 hrs by PCR analysis; assay type: functional, cell-based; conditions: dose 0.1-10 µM
[28] = Effect on RNA splicing in human K562 cells assessed as alternative 5' splice sites at 2 uM incubated for 12 hrs by RNA-seq analysis relative to control; assay type: functional
[29] = Cmax in ICR mouse at 15 mg/kg, po; assay type: ADME, organism-based; conditions: in vivo
[30] = system: HCT-116; experiment: Induction of cell cycle arrest in human HCT-116 cells assessed as accumulation at G2/M phase at 1 uM incubated for 72 hrs by PI staining based flow cytometry relative to control; assay type: functional
[31] = system: K562; experiment: Effect on RNA splicing in human K562 cells assessed as CEP192 gene retention of introns incubated for 12 hrs by PCR analysis; assay type: functional, cell-based; conditions: dose 0.1-10 µM
[32] = system: CEM/C1; experiment: Antiproliferative activity against human CEM/C1 cells assessed as inhibition of cell growth incubated for 4 days by CCK8 assay; assay type: functional, cell-based; conditions: time 4.0 day
[33] = system: RS4-11; experiment: Effect on RNA splicing in human RS4;11 cells assessed as CEP192 gene retention of introns incubated for 12 hrs by PCR analysis; assay type: functional, cell-based; conditions: dose 0.1-10 µM
[34] = system: HCT-116; experiment: Antitumor activity against human HCT-116 cells xenografted in BALB/c nude mouse at 50 mg/kg, po bid treated for 17 days relative to control; assay type: functional; conditions: HCT-116, 408 h, time 17 day, read-out: TGI
[35] = system: Kasumi 1; experiment: Effect on RNA splicing in human Kasumi 1 cells assessed as CEP192 gene retention of introns incubated for 12 hrs by PCR analysis; assay type: functional, cell-based; conditions: dose 0.1-10 µM
[36] = system: HL-60; experiment: Antiproliferative activity against human HL-60 cells assessed as inhibition of cell growth incubated for 4 days by CCK8 assay; assay type: functional, cell-based; conditions: time 4.0 day
[37] = system: HL-60; experiment: Induction of RBM39 degradation in human HL-60 cells incubated for 24 hrs by Western blot analysis; assay type: cell-based
[38] = system: MV4-11; experiment: Induction of RBM39 degradation in human MV4-11 cells incubated for 24 hrs by Western blot analysis; assay type: cell-based
[39] = system: RS4;11; experiment: Induction of RBM39 degradation in human RS4;11 cells incubated for 24 hrs by Western blot analysis; assay type: cell-based
[40] = system: RS4-11; experiment: Effect on RNA splicing in human RS4;11 cells assessed as CEP192 gene skipping exons incubated for 12 hrs by PCR analysis; assay type: functional, cell-based; conditions: dose 0.1-10 µM

SMILES | Activity [1] | Activity [2] | Activity [3] | Activity [4] | Activity [5] | Activity [6] | Activity [7] | Activity [8] | Activity [9] | Activity [10] | Activity [12] | Activity [13] | Activity [14] | Activity [15] | pIC50 [16] | Activity [17] | Activity [18] | Activity [19] | Activity [20] | Activity [21] | further results
NS(=O)(=O)c1ccc(S(=O)(=O)Nc2cccc3c(Cl)c[nH]c23)cc1 [INDISULAM] | 1378 | Active | 18.3% | inactive | 389 | 10485 | 836 | Active | Active | inactive | Dose-dependent-effect | Active | Time-dependent-effect; Observed Retention Of Introns Between Exons 27 And 28 | Active | 7.01 | Active | Active | Active | Active | Time-dependent-effect | Activity [11]: Active; Activity [22]: Active; Activity [23]: Active
Cc1ccc(NS(=O)(=O)c2cccc(NC(=O)C(=O)N3CCC[C@@H]3CO)c2)c2[nH]cc(C#N)c12 | 1098 | Active | 21.8% | inactive | 329 | 8905 | 745 | Active | Active | inactive | Dose-dependent-effect | Active | Time-dependent-effect; Observed Retention Of Introns Between Exons 27 And 28 | Active | 7.44 | Active | Active | Active | Active | Time-dependent-effect | Activity [24]: Dose-dependent-effect; Observed Skipping Of Exons 42, 28 And 13; inhibition [25]: Active; Activity [26]: Dose-dependent-effect; Observed Skipping Of Exons 42, 28 And 13; Activity [27]: Dose-dependent-effect; Observed Retention Of Introns Between Exons 27 And 28; Activity [28]: 3.6%; Cmax [29]: 2120 ng/mL; Activity [30]: 66%; Activity [31]: Dose-dependent-effect; Observed Retention Of Introns Between Exons 27 And 28; inhibition [32]: Active; Activity [33]: Dose-dependent-effect; Observed Retention Of Introns Between Exons 27 And 28; inhibition in vivo at 50 mg/kg [34]: 35%; Activity [35]: Dose-dependent-effect; Observed Retention Of Introns Between Exons 27 And 28; inhibition [36]: Active; Activity [37]: Dose-dependent-effect; Activity [38]: Dose-dependent-effect; Activity [39]: Dose-dependent-effect; Activity [40]: Dose-dependent-effect; Observed Skipping Of Exons 42, 28 And 13
